Test results: BindingDB's records for doi:10.1021/jm000468c (Abbott Laboratories, 2001)

experiment: Inhibitory activity was determined against Neuraminidase A from influenza virus A/Tokyo/3/67

SMILES	IC50
CC(C)N(C(=O)N1C[C@H](C(=O)O)[C@H](N=C(N)N)C1)C(C)C [1-Diisopropylcarbamoyl-4-guanidino-pyrrolidine-3-carboxylic acid]	13 µM
CCC(CC)C(=O)N1C[C@H](N)[C@H](C(=O)O)C1 [4-Amino-1-(2-ethyl-butyryl)-pyrrolidine-3-carboxylic acid]	22 µM
CCN(C(=O)N1C[C@H](N)[C@H](C(=O)O)C1)C(C)C [4-Amino-1-(ethyl-isopropyl-carbamoyl)-pyrrolidine-3-carboxylic acid]	1.6 µM
CC(C)N(CCO)C(=O)N1C[C@H](N)[C@H](C(=O)O)C1 [4-Amino-1-[(2-hydroxy-ethyl)-isopropyl-carbamoyl]-pyrrolidine-3-carboxylic acid]	21 µM
CC(C)N(CCCN)C(=O)N1C[C@H](N)[C@H](C(=O)O)C1 [4-Amino-1-[(3-amino-propyl)-isopropyl-carbamoyl]-pyrrolidine-3-carboxylic acid]	46 µM
CC(C)N(CCCC(=O)O)C(=O)N1C[C@H](N)[C@H](C(=O)O)C1 [4-Amino-1-[(3-carboxy-propyl)-isopropyl-carbamoyl]-pyrrolidine-3-carboxylic acid]	19 µM
CC(C)N(CCCO)C(=O)N1C[C@H](N)[C@H](C(=O)O)C1 [4-Amino-1-[(3-hydroxy-propyl)-isopropyl-carbamoyl]-pyrrolidine-3-carboxylic acid]	2.1 µM
CC(C)N(CCCCC(=O)O)C(=O)N1C[C@H](N)[C@H](C(=O)O)C1 [4-Amino-1-[(4-carboxy-butyl)-isopropyl-carbamoyl]-pyrrolidine-3-carboxylic acid]	1.3 µM
CC(C)N(CCCCCO)C(=O)N1C[C@H](N)[C@H](C(=O)O)C1 [4-Amino-1-[(5-hydroxy-pentyl)-isopropyl-carbamoyl]-pyrrolidine-3-carboxylic acid]	2 µM
CC(C)N(CCc1ccccn1)C(=O)N1C[C@H](N)[C@H](C(=O)O)C1 [4-Amino-1-[isopropyl-(2-pyridin-2-yl-ethyl)-carbamoyl]-pyrrolidine-3-carboxylic acid]	1.3 µM
CCN(CC)C(=O)N1C[C@H](N)[C@H](C(=O)O)C1 [4-Amino-1-diethylcarbamoyl-pyrrolidine-3-carboxylic acid]	25 µM
CC(C)N(C(=O)N1C[C@H](N)[C@H](C(=O)O)C1)C(C)C [4-Amino-1-diisopropylcarbamoyl-pyrrolidine-3-carboxylic acid]	4 µM
CCCN(CCC)C(=O)N1C[C@H](N)[C@H](C(=O)O)C1 [4-Amino-1-dipropylcarbamoyl-pyrrolidine-3-carboxylic acid]	32 µM
CCN(C(=O)N1C[C@@H](C(=O)O)[C@@H](N)[C@@H]1CNC(C)=O)C(C)C [5-(Acetylamino-methyl)-4-amino-1-(ethyl-isopropyl-carbamoyl)-pyrrolidine-3-carboxylic acid]	7.5 µM
CC(C)(C)OC(=O)N1C[C@@H](N)[C@@H](C(=O)O)C1 [A-87380]	50 µM
